Laboratory results: patent US6323001A, “Increasing the trehalose content of organisms by transforming them with combinations of the structural genes for trehalose synthase” (BTG International Ltd., priority 1994, dated 2001)
Read-outs that look alike come from different tables or passages of the source.

How the values were obtained:
[1] = molecular target: T1, Tre6P synthase activity of intact trehalose synthase (Saccharomyces cerevisiae, UniProt Q00764); experiment: Tre6P synthase assay of intact trehalose synthase; type: biochemical, baker's yeast; conditions: for Tre6P synthase activity, Intact Enzyme: 10 mM G6P, 5 mM UDPG, 5 mM F6P, without phosphate = 100%; for EC50: read-out: K1/2 of activation by F6P
T1 construct: Intact trehalose synthase was purified from commercial baker's yeast; made in house; host or cells: commercial baker's yeast (native enzyme purified, not recombinant)
T1 sequence (P31688 whole entry): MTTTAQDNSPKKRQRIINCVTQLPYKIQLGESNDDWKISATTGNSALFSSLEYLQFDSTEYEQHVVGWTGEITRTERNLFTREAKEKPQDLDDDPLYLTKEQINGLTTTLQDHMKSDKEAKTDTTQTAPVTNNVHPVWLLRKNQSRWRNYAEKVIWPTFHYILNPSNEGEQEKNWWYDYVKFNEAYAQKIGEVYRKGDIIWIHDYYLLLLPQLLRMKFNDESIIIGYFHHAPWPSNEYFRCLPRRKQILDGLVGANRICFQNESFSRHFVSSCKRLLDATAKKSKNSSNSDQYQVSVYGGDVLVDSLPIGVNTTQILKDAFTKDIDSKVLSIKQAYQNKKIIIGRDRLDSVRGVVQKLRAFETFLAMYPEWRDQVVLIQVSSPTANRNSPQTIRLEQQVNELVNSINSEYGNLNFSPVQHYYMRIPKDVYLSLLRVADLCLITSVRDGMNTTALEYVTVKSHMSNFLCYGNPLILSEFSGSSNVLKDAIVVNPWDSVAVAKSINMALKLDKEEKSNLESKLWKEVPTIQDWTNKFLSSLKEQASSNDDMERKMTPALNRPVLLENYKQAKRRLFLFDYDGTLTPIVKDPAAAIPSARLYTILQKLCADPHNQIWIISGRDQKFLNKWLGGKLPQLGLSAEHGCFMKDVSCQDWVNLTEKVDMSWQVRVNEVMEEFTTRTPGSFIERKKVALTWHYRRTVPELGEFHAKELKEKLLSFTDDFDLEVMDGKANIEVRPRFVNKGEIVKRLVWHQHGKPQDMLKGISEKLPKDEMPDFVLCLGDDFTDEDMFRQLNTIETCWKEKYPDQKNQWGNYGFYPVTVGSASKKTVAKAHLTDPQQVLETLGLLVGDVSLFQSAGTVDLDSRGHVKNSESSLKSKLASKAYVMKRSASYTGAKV
T1 sequence (P38427 whole entry, further chain): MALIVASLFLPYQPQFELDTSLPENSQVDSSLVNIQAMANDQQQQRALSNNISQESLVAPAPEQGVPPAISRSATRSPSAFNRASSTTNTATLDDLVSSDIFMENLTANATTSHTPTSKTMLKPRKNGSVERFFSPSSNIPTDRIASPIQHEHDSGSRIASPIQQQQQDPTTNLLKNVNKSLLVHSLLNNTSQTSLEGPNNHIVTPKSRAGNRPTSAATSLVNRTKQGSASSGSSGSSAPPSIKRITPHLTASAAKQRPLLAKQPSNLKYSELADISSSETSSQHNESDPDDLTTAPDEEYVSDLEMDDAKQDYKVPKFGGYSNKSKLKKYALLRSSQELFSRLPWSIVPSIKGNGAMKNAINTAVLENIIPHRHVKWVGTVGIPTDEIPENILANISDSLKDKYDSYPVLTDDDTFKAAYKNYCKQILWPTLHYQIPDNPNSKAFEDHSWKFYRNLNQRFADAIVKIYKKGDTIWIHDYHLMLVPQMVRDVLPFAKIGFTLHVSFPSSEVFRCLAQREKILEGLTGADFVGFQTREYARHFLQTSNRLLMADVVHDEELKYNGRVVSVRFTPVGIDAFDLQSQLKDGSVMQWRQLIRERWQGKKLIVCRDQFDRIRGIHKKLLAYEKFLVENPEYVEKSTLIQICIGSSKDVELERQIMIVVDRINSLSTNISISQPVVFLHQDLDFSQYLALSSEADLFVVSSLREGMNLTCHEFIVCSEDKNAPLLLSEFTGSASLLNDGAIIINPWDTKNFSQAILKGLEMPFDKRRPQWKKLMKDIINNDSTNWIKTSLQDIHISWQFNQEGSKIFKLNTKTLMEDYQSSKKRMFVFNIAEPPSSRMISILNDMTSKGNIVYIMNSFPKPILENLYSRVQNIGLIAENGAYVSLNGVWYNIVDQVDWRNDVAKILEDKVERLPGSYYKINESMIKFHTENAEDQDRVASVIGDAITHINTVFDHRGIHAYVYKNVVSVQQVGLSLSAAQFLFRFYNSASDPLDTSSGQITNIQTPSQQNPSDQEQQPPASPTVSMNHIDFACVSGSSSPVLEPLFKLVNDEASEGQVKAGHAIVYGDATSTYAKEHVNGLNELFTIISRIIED
T1 sequence (Q00764 whole entry): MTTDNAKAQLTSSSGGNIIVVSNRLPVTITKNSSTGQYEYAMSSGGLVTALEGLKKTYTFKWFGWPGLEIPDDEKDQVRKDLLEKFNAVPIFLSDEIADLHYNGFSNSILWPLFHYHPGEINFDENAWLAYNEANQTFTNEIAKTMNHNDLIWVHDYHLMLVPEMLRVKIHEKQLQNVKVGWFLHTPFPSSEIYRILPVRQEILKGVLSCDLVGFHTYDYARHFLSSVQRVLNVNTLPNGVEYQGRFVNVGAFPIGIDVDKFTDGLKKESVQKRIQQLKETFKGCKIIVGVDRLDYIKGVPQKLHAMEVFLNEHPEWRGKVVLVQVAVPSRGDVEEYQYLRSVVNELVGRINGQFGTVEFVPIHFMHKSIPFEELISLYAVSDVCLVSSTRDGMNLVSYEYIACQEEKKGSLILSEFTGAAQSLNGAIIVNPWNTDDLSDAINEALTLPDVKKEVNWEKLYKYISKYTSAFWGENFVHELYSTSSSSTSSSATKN
Experimental: (§1) With microbial materials, Tre6Pase and Tre6P synthase standard assays and other kinetic measurements were made as described by Londesborough & Vuorio [(1991) loc. cit.] except that the standard Tre6P synthase assay mixture contained 5 mM F6P unless stated otherwise.
Removal of the N-terminal 325 or so amino acids from the 123 kDa long chain of intact trehalose synthase by treatment with trypsin in vitro produces an enzyme with catalytic properties like those of the truncated enzyme purified by Londesborough & Vuorio [(1991) loc. cit.]. In one experiment intact trehalose synthase (0.28 Tre6P synthase units, ≈9.4 μg) was incubated with or without 0.5 μg of trypsin at 30° C. in 250 μl of 13 mM HEPES pH 7.0 containing 1 mM MgCl2, 0.5 mM EDTA, 0.5 mM dithiothreitol, 0.2 M NaCl and 0.5 mM benzamidine. Its Tre6P synthase activity was determined at intervals using standard assay mixtures (containing 5 mM F6P) containing no or 4 mM K phosphate pH 6.8, and samples were prepared for SDS-PAGE analysis immediately before and 48 min after addition of the trypsin.
(§2) Truncated trehalose synthase was prepared as described by Londesborough & Vuorio [(1991) loc. cit.] and contained the 57 kDa short chain and 86 and 93 kDa fragments of the long chain. Intact trehalose synthase was prepared as in Example 1. Kinetic assays were done at 30° C. as described in General Methods and Materials.

[2] = molecular target: Tre6Pase activity of truncated trehalose synthase (Saccharomyces cerevisiae, UniProt P31688); experiment: Tre6Pase assay of truncated trehalose synthase; type: biochemical, baker's yeast
Chain of Tre6Pase activity of truncated trehalose synthase (P31688 whole entry, the tested form may be a part): as the sequence (P31688 whole entry) above
Chain of Tre6Pase activity of truncated trehalose synthase (Q00764 whole entry, further chain, the tested form may be a part): as the sequence (Q00764 whole entry) above
Chain of Tre6Pase activity of truncated trehalose synthase (P38427 336-1098, further chain): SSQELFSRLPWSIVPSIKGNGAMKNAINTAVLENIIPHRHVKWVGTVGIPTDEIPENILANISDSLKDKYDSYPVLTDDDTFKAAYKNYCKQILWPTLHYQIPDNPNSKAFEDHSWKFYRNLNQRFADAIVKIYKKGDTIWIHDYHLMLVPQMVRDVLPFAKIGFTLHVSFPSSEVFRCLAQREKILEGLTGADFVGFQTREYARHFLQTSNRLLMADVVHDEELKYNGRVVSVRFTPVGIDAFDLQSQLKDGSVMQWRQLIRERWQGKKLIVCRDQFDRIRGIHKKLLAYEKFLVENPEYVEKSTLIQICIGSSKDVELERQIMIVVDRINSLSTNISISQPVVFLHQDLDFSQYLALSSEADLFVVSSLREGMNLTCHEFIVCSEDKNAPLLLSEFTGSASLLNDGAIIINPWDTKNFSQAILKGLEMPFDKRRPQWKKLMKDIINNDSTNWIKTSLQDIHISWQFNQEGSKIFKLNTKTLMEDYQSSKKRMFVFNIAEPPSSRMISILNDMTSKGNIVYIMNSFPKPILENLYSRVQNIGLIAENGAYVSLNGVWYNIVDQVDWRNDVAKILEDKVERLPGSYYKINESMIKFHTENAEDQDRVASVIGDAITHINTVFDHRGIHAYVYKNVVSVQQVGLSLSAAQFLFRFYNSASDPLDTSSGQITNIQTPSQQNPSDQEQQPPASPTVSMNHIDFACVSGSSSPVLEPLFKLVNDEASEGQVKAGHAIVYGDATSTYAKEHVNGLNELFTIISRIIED
Experimental: as §1
Truncated trehalose synthase containing the short (57 kDa) chain and the 86 and 93 kDa long chain fragments was prepared according to the method of Londesborough & Vuorio (1991) loc. cit.] for proteolytically activated TPS/P complex. Tre6P synthase and Tre6Pase activities were assayed as described by Londesborough & Vuorio [(1991) loc. cit.]. [N-ethyl-1-^14C]-maleimide (ethyl-labelled NEM; 40 mCi/mmol) was NEC-454 from New England Nuclear. N-ethyl-[2,3-^14 C]-maleimide (ring-labelled NEM; 6 mCi/mmol) was CFA 293 from Amersham International. Both were obtained as solutions in n-pentane and the manufacturer's stated specific activities were assumed to be correct. Unlabelled N-ethyl-maleimide (NEM) was E-3876 from Sigma. It was dissolved in 25 mM HEPES pH 7.0 immediately before use and standardized by absorption measurements at 305 nm, assuming an E^mM of 0.62.
In one experiment, 2.0 μl of 2.4 mM ethyl-labelled NEM was mixed with 150 μl of gel-filtered enzyme and incubated at 23° C. Samples (10 μl) taken at various times up to 190 min were mixed with 60 μl of Laemmli sample buffer (the mercapto-ethanol in this buffer should destroy residual NEM), boiled for 5 min and subjected to SDS-PAGE. At closely similar times (and also at 23 h) other samples (10 μl) were mixed with 100 μl (for Tre6P synthase) or 700 μl (for Tre6Pase) of 5 mg BSA/ml 25 mM HEPES pH 7.0 containing 2 mM MgCl2, 1 mM EDTA, 0.2 M NaCl and 1 mM dithiothreitol (the dithiothreitol should destroy residual NEM) and assayed for Tre6P synthase and Tre6Pase.
as §2

Compound | Tre6P synthase activity, Intact Enzyme ([1]; 1.3 mM added K phosphate pH 6.8) [%] | Tre6P synthase activity, Intact Enzyme ([1]; 4.0 mM added K phosphate pH 6.8) [%] | EC50 ([2]; initial rates, truncated enzyme, read-out: K1/2 of activation of Tre6Pase by phosphate) [µM] | EC50 ([1]; 1.3 mM phosphate) [µM] | EC50 ([1]; no added phosphate) [µM] | inhibition at 5000 µM ([2]; read-out: inhibition of Tre6Pase activity, 5 mM F6P, saturating phosphate concentrations, truncated enzyme) [%] | inhibition at 5000 µM ([2]; read-out: inhibition of Tre6Pase activity, 5 mM F6P, sub-optimal phosphate concentrations, truncated enzyme) [%]
O=P(O)(O)O [phosphate, K phosphate] | 69 | 14 | 3000 | – | – | – | –
O=C(CO)[C@@H](O)[C@H](O)[C@H](O)COP(=O)(O)O [Transformant F6P, Fructose 6-phosphate] | – | – | – | 1400 | 60 | 10 to 15 | 20 to 30
